Results: PubChem BioAssay AID1963439 (Molecular Pharmacology Branch, DTP, NCI, 2024)
“And” between values parts separate entries of the source, which are not always exact repeats. Identical values can stand only once.

System: NCI-H196 complex spheroids with HUVEC/MSC, growth % T/C
Experiment: Anticancer human tumor NCI-H196 cell line growth inhibition [Asc];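 note: spheroids exposed to compound for 7 days before measurement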;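 for viability, T/C: 100% = DMSO vehicle control wells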
Conditions: for viability, T/C: stronger effect = lower value
Outline: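 Tumor cells were grown as multicellular spheroids with stromal HUVEC and mesenchymal stem cells and treated singly or in combination. Concentrations fell in half-log steps from the clinical Cmax, or from 10 microM where none was known.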

[1] = curve of first compound, second compound 0.01 µM
[2] = curve of first compound, second compound 0.0316 µM
[3] = curve of first compound, second compound 0.1 µM
[4] = curve of first compound, second compound 0.316 µM
[5] = curve of first compound, second compound 1 µM
[6] = second compound 0.01 µM, first compound 0.0316 µM
[7] = second compound 0.01 µM, first compound 0.1 µM
[8] = second compound 0.0316 µM, first compound 0.0316 µM
[9] = second compound 0.0316 µM, first compound 0.1 µM
[10] = second compound 0.1 µM, first compound 0.0316 µM
[11] = second compound 0.1 µM, first compound 0.1 µM
[12] = second compound 0.316 µM, first compound 0.0316 µM
[13] = second compound 0.316 µM, first compound 0.1 µM
[14] = second compound 1 µM, first compound 0.0316 µM
[15] = second compound 1 µM, first compound 0.1 µM

`C=CC(=O)N1CCN(c2nc(=O)n(-c3c(C)ccnc3C(C)C)c3nc(-c4c(O)cccc4F)c(F)cc23)C(C)C1` (configuration not stated) was tested, and the viability, T/C (compound 0.0316 µM) was 92% and 102% and 106%, the viability, T/C (compound 0.1 µM) was 94.8% and 110% and 103% and the viability, T/C (compound 0.316 µM) was 103% and 93.4% and 109%. The viability, T/C (compound 1 µM) was 99.8% and 106% and 112%, the viability, T/C (compound 3.16 µM) was 97.6% and 103% (2×) and the viability, T/C (compound 10 µM) was 95.1% and 114% and 91.3%. For the same compound, the IC50 (curve of compound) was over 10000 nM.

`COc1c(OCCCN2CCOCC2)ccc2c3n(c(=NC(=O)c4cnc(N)nc4)nc12)CCN3` was tested, and the viability, T/C (compound 0.00316 µM) was 96% and 93% and 109%, the viability, T/C (compound 0.01 µM) was 91.4% and 90.6% and 101% and the viability, T/C (compound 0.0316 µM) was 94.1% and 100% and 108%. For the same compound, the viability, T/C (compound 0.1 µM) was 77.4% and 86.4% and 90.1%, the viability, T/C (compound 0.316 µM) was 67.9% and 69.6% and 69.5% and the viability, T/C (compound 1 µM) was 56.8% and 50.8% and 51%. The IC50 (curve of compound) was over 1000 nM.

With `C=C(F)C(=O)N1CCN(c2nc(OCC3CCCN3C)nc3c2CCN(c2cccc4cccc(Cl)c24)C3)CC1CC#N` (configuration not stated) the viability, T/C (compound 0.0316 µM) was 95.2% and 99.4% and 108%, the viability, T/C (compound 0.1 µM) was 109% and 99.9% and 101% and the viability, T/C (compound 0.316 µM) was 100% and 102% and 113%. For the same compound, the viability, T/C (compound 1 µM) was 96.1% and 103% and 109%, the viability, T/C (compound 3.16 µM) was 94.2% and 103% and 111% and the IC50 (curve of compound) was > 10000 nM and 5950 nM.

With `C#Cc1c(F)ccc2cc(O)cc(-c3ncc4c(N5CC6CCC(C5)N6)nc(OCC56CCCN5CC(F)C6)nc4c3F)c12` (configuration not stated) + CNC(C)C(=O)NC1CN(S(=O)(=O)c2cccc(S(=O)(=O)N3CCC4CCC(C(=O)NC(c5ccccc5)c5ccccc5)N4C(=O)C(NC(=O)C(C)NC)C3)c2)CCC2CCC(C(=O)NC(c3ccccc3)c3ccccc3)N2C1=O the IC50 [1] was under 31.6 nM, the IC50 [2] was under 31.6 nM and the IC50 [3] was under 31.6 nM. It also gave an IC50 [4] of under 31.6 nM, an IC50 [5] of under 31.6 nM and a viability, T/C [6] of 8.46%. The viability, T/C [7] was 8.46%, the viability, T/C (second compound 0.01 µM, first compound 0.316 µM) was 4.34% and the viability, T/C (second compound 0.01 µM, first compound 1 µM) was 5.01%. The viability, T/C (second compound 0.01 µM, first compound 3.16 µM) was 4.3%, the viability, T/C (second compound 0.01 µM, first compound 10 µM) was 1.48% and the viability, T/C [8] was 5.72%. It also gave a viability, T/C [9] of 5.7%, a viability, T/C (second compound 0.0316 µM, first compound 0.316 µM) of 4.82% and a viability, T/C (second compound 0.0316 µM, first compound 1 µM) of 3.76%. It also gave a viability, T/C (second compound 0.0316 µM, first compound 3.16 µM) of 4.16%, a viability, T/C (second compound 0.0316 µM, first compound 10 µM) of 0.96% and a viability, T/C [10] of 4.46%. The viability, T/C [11] was 3.83%, the viability, T/C (second compound 0.1 µM, first compound 0.316 µM) was 4.97% and the viability, T/C (second compound 0.1 µM, first compound 1 µM) was 3.85%. The viability, T/C (second compound 0.1 µM, first compound 3.16 µM) was 3.73%, the viability, T/C (second compound 0.1 µM, first compound 10 µM) was 0.77% and the viability, T/C [12] was 2.58%. The viability, T/C [13] was 2.92%, the viability, T/C (second compound 0.316 µM, first compound 0.316 µM) was 3.31% and the viability, T/C (second compound 0.316 µM, first compound 1 µM) was 3.63%. It also gave a viability, T/C (second compound 0.316 µM, first compound 3.16 µM) of 2.24%, a viability, T/C (second compound 0.316 µM, first compound 10 µM) of 1.04% and a viability, T/C [14] of 3.75%. The viability, T/C [15] was 2.83%, the viability, T/C (second compound 1 µM, first compound 0.316 µM) was 3.86% and the viability, T/C (second compound 1 µM, first compound 1 µM) was 2.71%. The viability, T/C (second compound 1 µM, first compound 3.16 µM) was 2.69% and the viability, T/C (second compound 1 µM, first compound 10 µM) was 1.34%.

`NC1CCC(NC2CC2c2ccccc2)CC1` (configuration not stated) + CNC(C)C(=O)NC1CN(S(=O)(=O)c2cccc(S(=O)(=O)N3CCC4CCC(C(=O)NC(c5ccccc5)c5ccccc5)N4C(=O)C(NC(=O)C(C)NC)C3)c2)CCC2CCC(C(=O)NC(c3ccccc3)c3ccccc3)N2C1=O was tested, and the IC50 [1] was under 0.316 nM, the IC50 [2] was under 0.316 nM and the IC50 [3] was under 0.316 nM. For the same compound, the IC50 [4] was under 0.316 nM, the IC50 [5] was under 0.316 nM and the viability, T/C (second compound 0.01 µM, first compound 0.000316 µM) was 4.85%. For the same compound, the viability, T/C (second compound 0.01 µM, first compound 0.001 µM) was 7.42%, the viability, T/C (second compound 0.01 µM, first compound 0.00316 µM) was 7.08% and the viability, T/C (second compound 0.01 µM, first compound 0.01 µM) was 4.94%. For the same compound, the viability, T/C [6] was 4.47%, the viability, T/C [7] was 5.83% and the viability, T/C (second compound 0.0316 µM, first compound 0.000316 µM) was 3.28%. For the same compound, the viability, T/C (second compound 0.0316 µM, first compound 0.001 µM) was 3.9%, the viability, T/C (second compound 0.0316 µM, first compound 0.00316 µM) was 6.09% and the viability, T/C (second compound 0.0316 µM, first compound 0.01 µM) was 4.65%. It also gave a viability, T/C [8] of 4.22%, a viability, T/C [9] of 4.12% and a viability, T/C (second compound 0.1 µM, first compound 0.000316 µM) of 3.22%. For the same compound, the viability, T/C (second compound 0.1 µM, first compound 0.001 µM) was 3.76%, the viability, T/C (second compound 0.1 µM, first compound 0.00316 µM) was 3.15% and the viability, T/C (second compound 0.1 µM, first compound 0.01 µM) was 3.8%. The viability, T/C [10] was 2.91%, the viability, T/C [11] was 5.63% and the viability, T/C (second compound 0.316 µM, first compound 0.000316 µM) was 3.14%. For the same compound, the viability, T/C (second compound 0.316 µM, first compound 0.001 µM) was 3.25%, the viability, T/C (second compound 0.316 µM, first compound 0.00316 µM) was 3.34% and the viability, T/C (second compound 0.316 µM, first compound 0.01 µM) was 2.68%. The viability, T/C [12] was 2.82%, the viability, T/C [13] was 2.95% and the viability, T/C (second compound 1 µM, first compound 0.000316 µM) was 3.04%. For the same compound, the viability, T/C (second compound 1 µM, first compound 0.001 µM) was 4.43%, the viability, T/C (second compound 1 µM, first compound 0.00316 µM) was 3.1% and the viability, T/C (second compound 1 µM, first compound 0.01 µM) was 3.47%. It also gave a viability, T/C [14] of 3.24% and a viability, T/C [15] of 2.28%.

With `C#Cc1c(F)ccc2cc(O)cc(-c3ncc4c(N5CC6CCC(C5)N6)nc(OCC56CCCN5CC(F)C6)nc4c3F)c12` (configuration not stated) the viability, T/C (compound 0.0316 µM) was 94.6% and 101% and 103%, the viability, T/C (compound 0.1 µM) was 93.4% and 95.6% and 109% and the viability, T/C (compound 0.316 µM) was 93.4% and 92.8% and 118%. The viability, T/C (compound 1 µM) was 102% and 100% and 113%, the viability, T/C (compound 3.16 µM) was 101% and 92.6% and 108% and the viability, T/C (compound 10 µM) was 105% and 92.6% and 104%. It also gave an IC50 (curve of compound) of over 10000 nM.

`CCN1C(C(=O)NC23CCC(C(=O)O)(CC2)CC3)C(c2cccc(Cl)c2F)C2(C(=O)Nc3cc(Cl)ccc32)C12CCCCC2` (configuration not stated) + CNC(C)C(=O)NC1CN(S(=O)(=O)c2cccc(S(=O)(=O)N3CCC4CCC(C(=O)NC(c5ccccc5)c5ccccc5)N4C(=O)C(NC(=O)C(C)NC)C3)c2)CCC2CCC(C(=O)NC(c3ccccc3)c3ccccc3)N2C1=O gave an IC50 [1] of under 9.49 nM, an IC50 [2] of under 9.49 nM and an IC50 [3] of under 9.49 nM. For the same compound, the IC50 [4] was under 9.49 nM, the IC50 [5] was under 9.49 nM and the viability, T/C (second compound 0.01 µM, first compound 0.00949 µM) was 6.77%. For the same compound, the viability, T/C (second compound 0.01 µM, first compound 0.03 µM) was 8.8%, the viability, T/C (second compound 0.01 µM, first compound 0.0949 µM) was 6.77% and the viability, T/C (second compound 0.01 µM, first compound 0.3 µM) was 4.95%. The viability, T/C (second compound 0.01 µM, first compound 0.949 µM) was 4.31%, the viability, T/C (second compound 0.01 µM, first compound 3 µM) was 2.99% and the viability, T/C (second compound 0.0316 µM, first compound 0.00949 µM) was 4.48%. For the same compound, the viability, T/C (second compound 0.0316 µM, first compound 0.03 µM) was 6.6%, the viability, T/C (second compound 0.0316 µM, first compound 0.0949 µM) was 5.08% and the viability, T/C (second compound 0.0316 µM, first compound 0.3 µM) was 5.41%. The viability, T/C (second compound 0.0316 µM, first compound 0.949 µM) was 2.77%, the viability, T/C (second compound 0.0316 µM, first compound 3 µM) was 1.77% and the viability, T/C (second compound 0.1 µM, first compound 0.00949 µM) was 3.71%. It also gave a viability, T/C (second compound 0.1 µM, first compound 0.03 µM) of 4.01%, a viability, T/C (second compound 0.1 µM, first compound 0.0949 µM) of 3.17% and a viability, T/C (second compound 0.1 µM, first compound 0.3 µM) of 3.11%. The viability, T/C (second compound 0.1 µM, first compound 0.949 µM) was 1.37%, the viability, T/C (second compound 0.1 µM, first compound 3 µM) was 2.04% and the viability, T/C (second compound 0.316 µM, first compound 0.00949 µM) was 2.48%. It also gave a viability, T/C (second compound 0.316 µM, first compound 0.03 µM) of 4.45%, a viability, T/C (second compound 0.316 µM, first compound 0.0949 µM) of 3.05% and a viability, T/C (second compound 0.316 µM, first compound 0.3 µM) of 1.97%. The viability, T/C (second compound 0.316 µM, first compound 0.949 µM) was 0.96%, the viability, T/C (second compound 0.316 µM, first compound 3 µM) was 1.45% and the viability, T/C (second compound 1 µM, first compound 0.00949 µM) was 2.97%. It also gave a viability, T/C (second compound 1 µM, first compound 0.03 µM) of 4.34%, a viability, T/C (second compound 1 µM, first compound 0.0949 µM) of 2.12% and a viability, T/C (second compound 1 µM, first compound 0.3 µM) of 1.73%. The viability, T/C (second compound 1 µM, first compound 0.949 µM) was 1.39% and the viability, T/C (second compound 1 µM, first compound 3 µM) was 1.39%.
